# ChEMBL document CHEMBL3286306, “Himbacine-derived thrombin receptor antagonists: c7-spirocyclic analogues of vorapaxar” (ACS Med Chem Lett, 2014)
# Tests used:
# [1] = molecular target: T1, Proteinase-activated receptor 1 (Homo sapiens, UniProt P25116); assay: Displacement of [3H]haTRAP from PAR-1 receptor in human platelet membranes after 1 hr by scintillation counting analysis; format: cell membranes
# T1 sequence (P25116 whole entry): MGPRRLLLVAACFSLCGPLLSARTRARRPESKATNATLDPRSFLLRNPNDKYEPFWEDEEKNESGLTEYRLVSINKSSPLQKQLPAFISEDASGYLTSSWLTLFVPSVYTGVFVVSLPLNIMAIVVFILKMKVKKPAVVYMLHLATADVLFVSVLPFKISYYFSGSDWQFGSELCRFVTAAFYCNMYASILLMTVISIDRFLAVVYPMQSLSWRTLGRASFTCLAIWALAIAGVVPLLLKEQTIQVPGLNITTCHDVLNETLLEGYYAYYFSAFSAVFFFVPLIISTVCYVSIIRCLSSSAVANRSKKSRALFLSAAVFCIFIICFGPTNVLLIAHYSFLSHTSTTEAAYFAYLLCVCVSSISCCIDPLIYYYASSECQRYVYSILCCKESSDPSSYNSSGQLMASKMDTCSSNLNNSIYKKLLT
# [2] = AUC (0 to 6 hrs) in rat at 10 mg/kg, po; format: ADME, organism-based; parameters: time < 6 hr, dose 10 mg/kg, route oral; conditions: plasma
SMILES,Ki [1],AUC(0-t) at 6 h [2]
C[C@H]1OC(=O)[C@@H]2C[C@@H]3C[C@]4(CC[C@H]3[C@H](/C=C/c3ccc(-c5cccc(C(F)(F)F)c5)cn3)[C@H]12)CNC(=O)O4,392 nM,
C[C@H]1OC(=O)[C@@H]2C[C@@H]3C[C@@]4(CC[C@H]3[C@H](/C=C/c3ccc(-c5cccc(C(F)(F)F)c5)cn3)[C@H]12)COC(=O)N4,26.5 nM,
C[C@H]1OC(=O)[C@@H]2C[C@@H]3C[C@@]4(CC[C@H]3[C@H](/C=C/c3ccc(-c5cccc(C(F)(F)F)c5)cn3)[C@H]12)CNC(=O)O4,31.5 nM,3200 ng·h/mL
C[C@H]1OC(=O)[C@@H]2C[C@@H]3C[C@@]4(CC[C@H]3[C@H](/C=C/c3ccc(-c5ccccc5F)cn3)[C@H]12)COC(=O)N4,25 nM,
C[C@H]1OC(=O)[C@@H]2C[C@@H]3C[C@@]4(CC[C@H]3[C@H](/C=C/c3ccc(-c5cccc(F)c5)cn3)[C@H]12)COC(=O)N4,28 nM,
C[C@H]1OC(=O)[C@@H]2C[C@@H]3C[C@]4(CC[C@H]3[C@H](/C=C/c3ccc(-c5cccc(C#N)c5)cn3)[C@H]12)COC(=O)N4,267 nM,

# The remaining compounds from weak to strong by Ki [1], led by results:
Ki [1],AUC(0-t) at 6 h [2],SMILES
232 nM,,C[C@H]1OC(=O)[C@@H]2C[C@@H]3C[C@@]4(CC[C@H]3[C@H](/C=C/c3ccc(-c5ccccn5)cn3)[C@H]12)COC(=O)N4
43 nM,,C[C@H]1OC(=O)[C@@H]2C[C@@H]3C[C@@]4(CC[C@H]3[C@H](/C=C/c3ccc(-c5cccc(C#N)c5)cn3)[C@H]12)COC(=O)N4
21 nM,4920 ng·h/mL,C[C@H]1OC(=O)[C@@H]2C[C@@H]3C[C@]4(CC[C@H]3[C@H](/C=C/c3ccc(-c5cccc(C(F)(F)F)c5)cn3)[C@H]12)COC(=O)N4
15.5 nM,3240 ng·h/mL,C[C@H]1OC(=O)[C@@H]2C[C@@H]3C[C@]4(CC[C@H]3[C@H](/C=C/c3ccc(-c5cccc(F)c5)cn3)[C@H]12)COC(=O)N4
8.9 nM,,C[C@H]1OC(=O)[C@@H]2C[C@@H]3C[C@@]4(CC[C@H]3[C@H](/C=C/c3ccc(-c5ccccc5C#N)cn3)[C@H]12)COC(=O)N4
5.1 nM,,C[C@H]1OC(=O)[C@@H]2C[C@@H]3C[C@]4(CC[C@H]3[C@H](/C=C/c3ccc(-c5ccccc5C#N)cn3)[C@H]12)COC(=O)N4
